# Test results published in ChEMBL document CHEMBL1250451, “Mechanistic insights into a Ca2+-dependent family of alpha-mannosidases in a human gut symbiont” (Nat Chem Biol, 2010).
# The source made the active and inactive calls. The rule behind the calls is not given here.
# Legend:
# Assay type in all cases: protein assay
# [1] = target: T1, Alpha-1,2-mannosidase (BT_2629) (Bacteroides thetaiotaomicron) (UniProt Q8A4H0); experiment: Activity of Bacteroides thetaiotaomicron GH92 alpha-mannosidase GH92 alpha-mannosidase 2629 assessed as mannose release at 1 mM after 16 hrs by HPLC relative to untreated control after 16 hrs by HPLC
# T1 sequence (whole entry): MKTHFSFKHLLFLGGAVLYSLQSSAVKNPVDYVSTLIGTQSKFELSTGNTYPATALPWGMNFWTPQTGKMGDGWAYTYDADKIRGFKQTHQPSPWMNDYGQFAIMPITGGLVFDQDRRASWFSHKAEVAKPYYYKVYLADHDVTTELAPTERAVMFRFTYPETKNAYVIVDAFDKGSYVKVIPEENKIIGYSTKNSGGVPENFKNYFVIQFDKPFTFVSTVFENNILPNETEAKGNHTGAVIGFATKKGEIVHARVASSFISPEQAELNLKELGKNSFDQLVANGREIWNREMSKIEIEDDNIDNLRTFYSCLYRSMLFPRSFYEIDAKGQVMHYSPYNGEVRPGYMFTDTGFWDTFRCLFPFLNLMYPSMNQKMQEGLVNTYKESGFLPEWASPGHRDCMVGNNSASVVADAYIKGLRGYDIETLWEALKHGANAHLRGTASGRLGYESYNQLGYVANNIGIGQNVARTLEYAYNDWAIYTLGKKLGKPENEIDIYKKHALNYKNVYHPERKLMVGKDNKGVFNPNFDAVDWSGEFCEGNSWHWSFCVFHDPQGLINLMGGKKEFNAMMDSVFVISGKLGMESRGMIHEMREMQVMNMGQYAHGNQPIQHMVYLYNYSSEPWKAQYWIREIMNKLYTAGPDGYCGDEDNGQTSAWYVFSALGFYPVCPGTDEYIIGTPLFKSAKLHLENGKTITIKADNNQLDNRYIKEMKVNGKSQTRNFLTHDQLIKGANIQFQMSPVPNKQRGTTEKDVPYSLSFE
# [2] = target: T2, Alpha-1,2-mannosidase, putative (BT_3773) (Bacteroides thetaiotaomicron) (UniProt Q8A193); experiment: Activity of Bacteroides thetaiotaomicron GH92 alpha-mannosidase GH92 alpha-mannosidase 3773 assessed as mannose release at 1 mM after 16 hrs by HPLC relative to untreated control after 16 hrs by HPLC
# T2 sequence (whole entry): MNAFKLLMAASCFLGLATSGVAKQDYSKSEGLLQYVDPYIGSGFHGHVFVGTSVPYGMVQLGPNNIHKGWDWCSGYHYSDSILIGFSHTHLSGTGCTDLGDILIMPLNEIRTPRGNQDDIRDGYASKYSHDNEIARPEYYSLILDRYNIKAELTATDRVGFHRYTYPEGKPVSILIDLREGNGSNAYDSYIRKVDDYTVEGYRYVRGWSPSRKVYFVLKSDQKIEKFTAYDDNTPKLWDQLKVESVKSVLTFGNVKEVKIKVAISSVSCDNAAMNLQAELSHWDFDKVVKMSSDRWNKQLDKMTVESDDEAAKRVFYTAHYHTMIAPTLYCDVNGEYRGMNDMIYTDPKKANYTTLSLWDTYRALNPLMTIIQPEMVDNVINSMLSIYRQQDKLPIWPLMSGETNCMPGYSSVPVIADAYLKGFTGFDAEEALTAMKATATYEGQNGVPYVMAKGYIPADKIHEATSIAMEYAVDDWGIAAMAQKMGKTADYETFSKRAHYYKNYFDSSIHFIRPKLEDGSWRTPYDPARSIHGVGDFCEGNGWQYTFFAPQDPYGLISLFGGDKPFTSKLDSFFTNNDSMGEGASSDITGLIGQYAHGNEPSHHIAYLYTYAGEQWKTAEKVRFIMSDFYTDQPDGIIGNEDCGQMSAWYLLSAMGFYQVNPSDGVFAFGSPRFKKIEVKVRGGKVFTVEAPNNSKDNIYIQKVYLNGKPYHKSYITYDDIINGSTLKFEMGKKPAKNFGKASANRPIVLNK
# [3] = target: T3, Alpha-1,2-mannosidase (BT_3965) (Bacteroides thetaiotaomicron) (UniProt Q8A0Q6); experiment: Activity of Bacteroides thetaiotaomicron GH92 alpha-mannosidase GH92 alpha-mannosidase 3965 assessed as mannose release at 1 mM after 16 hrs by HPLC relative to untreated control after 16 hrs by HPLC
# T3 sequence (whole entry): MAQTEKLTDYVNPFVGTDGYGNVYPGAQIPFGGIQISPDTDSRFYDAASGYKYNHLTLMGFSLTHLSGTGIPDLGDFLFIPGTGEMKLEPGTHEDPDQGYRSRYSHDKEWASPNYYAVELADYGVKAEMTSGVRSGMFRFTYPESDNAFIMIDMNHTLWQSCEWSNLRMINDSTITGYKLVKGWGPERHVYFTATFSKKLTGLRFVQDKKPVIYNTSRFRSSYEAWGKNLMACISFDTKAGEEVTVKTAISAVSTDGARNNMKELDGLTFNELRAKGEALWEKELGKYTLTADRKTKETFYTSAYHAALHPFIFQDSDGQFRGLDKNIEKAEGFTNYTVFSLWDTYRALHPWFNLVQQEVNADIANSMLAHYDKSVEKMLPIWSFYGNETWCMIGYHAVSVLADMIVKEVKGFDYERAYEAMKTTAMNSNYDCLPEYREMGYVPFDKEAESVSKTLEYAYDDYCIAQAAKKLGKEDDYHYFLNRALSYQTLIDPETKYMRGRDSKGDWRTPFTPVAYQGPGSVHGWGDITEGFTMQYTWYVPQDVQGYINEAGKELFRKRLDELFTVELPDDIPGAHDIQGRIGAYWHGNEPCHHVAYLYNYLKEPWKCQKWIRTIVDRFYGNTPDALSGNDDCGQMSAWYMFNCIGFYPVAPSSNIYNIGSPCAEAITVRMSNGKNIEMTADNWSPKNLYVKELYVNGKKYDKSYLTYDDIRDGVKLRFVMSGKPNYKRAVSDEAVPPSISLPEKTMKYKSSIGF
Activity [1],Activity [2],Activity [3],Compound
inactive,0.91%,0.27%,OC[C@H]1O[C@H](O[C@H]2[C@@H](O)[C@H](O)[C@@H](CO)O[C@@H]2O)[C@@H](O)[C@@H](O)[C@@H]1O
inactive,,0.09%,OC[C@H]1O[C@H](O[C@@H]2[C@H](O)[C@@H](O)O[C@H](CO)[C@H]2O)[C@@H](O)[C@@H](O)[C@@H]1O
inactive,4.7%,100%,OC[C@H]1O[C@H](O[C@H]2[C@H](O)[C@H](O)[C@@H](O)O[C@@H]2CO)[C@@H](O)[C@@H](O)[C@@H]1O
inactive,0.0088%,0.64%,OC[C@H]1O[C@H](OC[C@H]2O[C@H](O)[C@@H](O)[C@@H](O)[C@@H]2O)[C@@H](O)[C@@H](O)[C@@H]1O
